Laboratory results: publication PMC6150365, “Simultaneous Determination of Seven Components in Rat Plasma by the UPLC-MS/MS Method and Application of Pharmacokinetic Studies to SimiaoYong’an Decoction” (Molecules : A Journal of Synthetic Chemistry and Natural …, 2017)

Assay: Pharmacokinetic study in rats after oral administration of SYD extract and its single and combined TCM extracts (UPLC-MS/MS of plasma)
Settings: male, Sprague-Dawley, rat, plasma, po, n = 6; for AUC(0-t) / AUC(0-inf) / Cmax / MRT last / MRT inf / Tmax: rat plasma; for MRT last: MRT(0–t); for MRT inf: MRT(0–∞); for half-life: t1/2, rat plasma
[1] = 1.29 g/kg, oral AS extract 1.29 g/kg
[2] = 2.14 g·kg^−1 (extract), oral LJ + GU extract
[3] = 2.15 g/kg, oral LJ extract 2.15 g/kg
[4] = 2.43 g/kg, oral AS + GU extract 2.43 g/kg
[5] = 3.29 g·kg^−1 (extract), oral LJ + AS extract
[6] = 3.29 g·kg^−1 extract, oral LJ + AS extract
[7] = 4.5 g·kg^−1 (extract), oral LJ + SN extract
[8] = 4.5 g·kg^−1 extract, oral LJ + SN extract
[9] = 4.73 g/kg, oral LJ + SN + GU extract 4.73 g/kg
[10] = 5.43 g/kg, oral LJ + SN + AS extract 5.43 g/kg
[11] = 8.25 g/kg, oral SYD extract 8.25 g/kg

Work on `O=C(/C=C/c1ccc(O)c(O)c1)O[C@@H]1C[C@](O)(C(=O)O)C[C@@H](O)[C@H]1O` [Chlorogenic acid, chlorogenic acid] yielded an AUC(0-t) [1] of 1360 ± 120 ng·h/mL, an AUC(0-inf) [1] of 2130 ± 670 ng·h/mL and a Cmax [1] of 390 ± 110 ng/mL. For the same compound, the MRT last [1] was 1.56 ± 0.67 h, the MRT inf [1] was 4.28 ± 2.23 h and the Tmax [1] was 0.89 ± 0.33 h. It also gave a half-life [1] of 3.54 ± 0.98 h, an AUC(0-inf) [2] of 2930 ± 1000 ng·h/mL and a Cmax [2] of 1070 ± 190 ng/mL. It also gave an MRT last [2] of 3.85 ± 0.88 h, an MRT inf [2] of 65 ± 64.6 h and a Tmax [2] of 1.18 ± 0.78 h. The half-life [2] was 8.15 ± 2.49 h, the AUC(0-t) (2.14 g·kg^−1 extract, oral LJ + GU extract) was 1780 ± 290 ng·h/mL and the AUC(0-t) [3] was 3940 ± 2120 ng·h/mL. For the same compound, the AUC(0-inf) [3] was 5040 ± 2980 ng·h/mL, the Cmax [3] was 2410 ± 830 ng/mL and the MRT last [3] was 3.12 ± 0.75 h. The MRT inf [3] was 24.7 ± 8.81 h, the Tmax [3] was 1.11 ± 0.74 h and the half-life [3] was 9.39 ± 2.87 h. For the same compound, the AUC(0-t) [4] was 1150 ± 340 ng·h/mL, the AUC(0-inf) [4] was 1980 ± 450 ng·h/mL and the Cmax [4] was 290 ± 210 ng/mL. For the same compound, the MRT last [4] was 1.78 ± 0.39 h, the MRT inf [4] was 3.36 ± 2 h and the Tmax [4] was 0.55 ± 0.48 h. The half-life [4] was 2.78 ± 0.53 h, the Cmax [5] was 1670 ± 480 ng/mL and the MRT last [5] was 3.17 ± 0.75 h. It also gave an MRT inf [5] of 37.6 ± 36.1 h, a Tmax [5] of 1.36 ± 0.69 h and a half-life [5] of 7.14 ± 1.59 h. It also gave an AUC(0-t) [6] of 2820 ± 750 ng·h/mL, an AUC(0-inf) [6] of 3770 ± 1220 ng·h/mL and an MRT last [7] of 3.48 ± 0.86 h. The MRT inf [7] was 46.8 ± 43.4 h, the Tmax [7] was 1.36 ± 1.03 h and the half-life [7] was 7.82 ± 2.6 h. It also gave an AUC(0-t) [8] of 2800 ± 1160 ng·h/mL, an AUC(0-inf) [8] of 4250 ± 2310 ng·h/mL and a Cmax [8] of 1740 ± 750 ng/mL. For the same compound, the AUC(0-t) [9] was 2190 ± 480 ng·h/mL, the AUC(0-inf) [9] was 3410 ± 640 ng·h/mL and the Cmax [9] was 1280 ± 510 ng/mL. The MRT last [9] was 3.44 ± 0.29 h, the MRT inf [9] was 69.3 ± 73.6 h and the half-life [9] was 8.34 ± 1.07 h. It also gave an AUC(0-t) [10] of 2550 ± 640 ng·h/mL, an AUC(0-inf) [10] of 3690 ± 490 ng·h/mL and a Cmax [10] of 1380 ± 370 ng/mL. For the same compound, the MRT last [10] was 3.19 ± 0.32 h, the MRT inf [10] was 59.5 ± 63.2 h and the half-life [10] was 6.73 ± 1.7 h. The AUC(0-t) [11] was 2540 ± 280 ng·h/mL, the AUC(0-inf) [11] was 3650 ± 820 ng·h/mL and the Cmax [11] was 1220 ± 80 ng/mL. It also gave an MRT last [11] of 3.28 ± 0.5 h, an MRT inf [11] of 52.6 ± 53.8 h and a half-life [11] of 8.08 ± 1.67 h. For the same compound, the half-life ([…], oral SN + AS + GU extract […]) was 7.95 ± 2.46 h.
